The record followed here is ChEMBL document CHEMBL5346973 (J Med Chem, 2023).

Where a SMILES comes first, the peptide text is derived from it.

The target in experiment [1] is Nicotinic acetylcholine receptor alpha9/alpha10 (Rattus norvegicus, UniProt P43144+Q9JLB5). The experiment can be described thus: Antagonist activity at rat alpha9alpha10 nACh receptor expressed in Xenopus oocyte assessed as inhibition of acetylcholine-induced response at -70 mV holding potential by voltage-clamp based electrophysiological assay. Format: cell-based.
Nicotinic acetylcholine receptor alpha9/alpha10, sequence (P43144 whole entry): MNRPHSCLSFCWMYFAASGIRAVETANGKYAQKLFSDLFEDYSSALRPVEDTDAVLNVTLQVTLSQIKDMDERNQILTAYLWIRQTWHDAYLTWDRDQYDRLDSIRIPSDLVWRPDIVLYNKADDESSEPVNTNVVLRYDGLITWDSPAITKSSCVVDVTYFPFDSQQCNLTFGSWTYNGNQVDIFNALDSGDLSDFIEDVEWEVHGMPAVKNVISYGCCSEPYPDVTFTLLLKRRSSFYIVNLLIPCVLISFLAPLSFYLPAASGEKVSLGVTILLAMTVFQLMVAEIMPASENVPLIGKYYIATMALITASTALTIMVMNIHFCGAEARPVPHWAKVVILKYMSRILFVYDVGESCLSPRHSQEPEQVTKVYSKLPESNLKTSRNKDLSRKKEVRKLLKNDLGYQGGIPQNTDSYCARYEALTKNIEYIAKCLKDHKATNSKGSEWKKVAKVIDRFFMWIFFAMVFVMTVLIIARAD
Nicotinic acetylcholine receptor alpha9/alpha10, sequence (Q9JLB5 whole entry): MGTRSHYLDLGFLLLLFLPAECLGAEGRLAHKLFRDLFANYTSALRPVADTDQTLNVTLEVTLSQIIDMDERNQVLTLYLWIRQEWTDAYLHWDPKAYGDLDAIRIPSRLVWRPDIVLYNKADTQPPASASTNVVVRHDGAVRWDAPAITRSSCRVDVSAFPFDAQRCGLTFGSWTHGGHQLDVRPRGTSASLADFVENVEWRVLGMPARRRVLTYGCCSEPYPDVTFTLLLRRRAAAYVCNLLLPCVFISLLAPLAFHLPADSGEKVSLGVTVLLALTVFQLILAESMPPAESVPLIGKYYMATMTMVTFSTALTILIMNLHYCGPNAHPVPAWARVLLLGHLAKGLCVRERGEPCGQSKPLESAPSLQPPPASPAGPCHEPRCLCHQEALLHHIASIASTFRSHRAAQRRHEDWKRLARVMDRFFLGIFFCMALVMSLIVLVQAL

The target of experiment [2] is Neuronal acetylcholine receptor subunit alpha-7 (Rattus norvegicus, UniProt Q05941). The experiment can be described thus: Antagonist activity at rat alpha7 nACh receptor expressed in Xenopus oocyte assessed as inhibition of acetylcholine-induced response at -70 mV holding potential by voltage-clamp based electrophysiological assay. The format is cell-based.
Neuronal acetylcholine receptor subunit alpha-7, sequence (Q05941 whole entry): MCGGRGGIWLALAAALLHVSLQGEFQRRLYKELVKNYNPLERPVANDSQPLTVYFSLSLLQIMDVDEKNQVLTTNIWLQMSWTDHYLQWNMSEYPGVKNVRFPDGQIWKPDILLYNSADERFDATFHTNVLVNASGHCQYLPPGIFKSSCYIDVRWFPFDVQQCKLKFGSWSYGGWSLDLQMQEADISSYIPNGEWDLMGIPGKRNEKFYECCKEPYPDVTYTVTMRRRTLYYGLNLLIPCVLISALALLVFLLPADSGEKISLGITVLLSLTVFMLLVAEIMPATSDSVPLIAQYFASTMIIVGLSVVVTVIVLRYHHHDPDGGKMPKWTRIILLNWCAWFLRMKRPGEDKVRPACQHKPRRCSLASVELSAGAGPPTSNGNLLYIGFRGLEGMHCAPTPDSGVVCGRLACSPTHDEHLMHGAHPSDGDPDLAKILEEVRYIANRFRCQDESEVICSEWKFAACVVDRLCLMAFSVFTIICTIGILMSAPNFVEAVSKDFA

One may read the IC50 as the concentration that inhibits the measured activity by half. Turning to `CC[C@H](C)[C@@H]1NC(=O)[C@H](C)NC(=O)[C@H](CCCNC(=N)N)NC(=O)[C@@H]2CSSC[C@H](NC(=O)[C@H](Cc3ccc(O)cc3)NC(=O)[C@H](CCCNC(=N)N)NC(=O)CNC(=O)[C@H](CO)NC(=O)[C@H](CO)NC(=O)[C@H](CCCNC(=N)N)NC(=O)[C@@H](NC(=O)[C@@H](N)[C@@H](C)O)CSSC[C@@H](C(=O)N[C@H](C(=O)O)C(C)C)NC(=O)[C@H](C)NC(=O)[C@H](CC(=O)O)NC(=O)[C@H]([C@@H](C)O)NC1=O)C(=O)N[C@@H](CCCNC(=N)N)C(=O)N[C@@H](CO)C(=O)N1CCC[C@H]1C(=O)N[C@@H](Cc1ccc(O)cc1)C(=O)N[C@@H](CC(=O)O)C(=O)N[C@@H](CCCNC(=N)N)C(=O)N[C@@H](CCCNC(=N)N)C(=O)N[C@@H](CCCNC(=N)N)C(=O)N[C@@H](CCCNC(=N)N)C(=O)N[C@@H](Cc1ccc(O)cc1)C(=O)N2`, the values for the IC50 in experiment [1] and in experiment [2] were 185 nM and more than 10000 nM, respectively.

Take `CC[C@H](C)[C@@H]1NC(=O)[C@H](CCCNC(=N)N)NC(=O)[C@H](CCCNC(=N)N)NC(=O)[C@@H]2CSSC[C@H](NC(=O)[C@H](Cc3ccc(O)cc3)NC(=O)[C@H](CCCNC(=N)N)NC(=O)CNC(=O)[C@H](CO)NC(=O)[C@H](CO)NC(=O)[C@H](CCCNC(=N)N)NC(=O)[C@@H](NC(=O)[C@@H](N)[C@@H](C)O)CSSC[C@@H](C(=O)N[C@H](C(=O)O)C(C)C)NC(=O)[C@H](C)NC(=O)[C@H](CC(=O)O)NC(=O)[C@H]([C@@H](C)O)NC1=O)C(=O)N[C@@H](CCCNC(=N)N)C(=O)N[C@@H](CO)C(=O)N1CCC[C@H]1C(=O)N[C@@H](Cc1ccc(O)cc1)C(=O)N[C@@H](CC(=O)O)C(=O)N[C@@H](CCCNC(=N)N)C(=O)N[C@@H](C)C(=O)N[C@@H](CCCNC(=N)N)C(=O)N[C@@H](CCCNC(=N)N)C(=O)N[C@@H](Cc1ccc(O)cc1)C(=O)N2`: the values for the IC50 in experiment [1] and in experiment [2] were 83 nM and more than 10000 nM, respectively.

Consider `CC[C@H](C)[C@@H]1NC(=O)[C@H](CCCNC(=N)N)NC(=O)[C@H](CCCNC(=N)N)NC(=O)[C@@H](NC(=O)[C@H](Cc2ccc(O)cc2)NC(=O)[C@H](CCCNC(=N)N)NC(=O)[C@H](CCCNC(=N)N)NC(=O)[C@H](CCCNC(=N)N)NC(=O)[C@H](CCCNC(=N)N)NC(=O)[C@H](CC(=O)O)NC(=O)[C@H](Cc2ccc(O)cc2)NC(=O)[C@@H]2CCCN2C(=O)[C@H](CO)NC(=O)[C@H](CCCNC(=N)N)NC(=O)[C@@H]2CSSC[C@H](NC(=O)[C@H](C)N)C(=O)N[C@@H](CCCNC(=N)N)C(=O)N[C@@H](CO)C(=O)N[C@@H](CO)C(=O)NCC(=O)N[C@@H](CCCNC(=N)N)C(=O)N[C@@H](Cc3ccc(O)cc3)C(=O)N2)CSSC[C@@H](C(=O)N[C@H](C(=O)O)C(C)C)NC(=O)[C@H](C)NC(=O)[C@H](CC(=O)O)NC(=O)[C@H]([C@@H](C)O)NC1=O`, for which the IC50 was found to be 8.1 nM in experiment [1] and 1080 nM in experiment [2].

With `CC[C@H](C)[C@@H]1NC(=O)[C@H](CCCNC(=N)N)NC(=O)[C@H](CCCNC(=N)N)NC(=O)[C@@H]2CSSC[C@H](NC(=O)[C@H](Cc3ccc(O)cc3)NC(=O)[C@H](C)NC(=O)CNC(=O)[C@H](CO)NC(=O)[C@H](CO)NC(=O)[C@H](CCCNC(=N)N)NC(=O)[C@@H](NC(=O)[C@@H](N)[C@@H](C)O)CSSC[C@@H](C(=O)N[C@H](C(=O)O)C(C)C)NC(=O)[C@H](C)NC(=O)[C@H](CC(=O)O)NC(=O)[C@H]([C@@H](C)O)NC1=O)C(=O)N[C@@H](CCCNC(=N)N)C(=O)N[C@@H](CO)C(=O)N1CCC[C@H]1C(=O)N[C@@H](Cc1ccc(O)cc1)C(=O)N[C@@H](CC(=O)O)C(=O)N[C@@H](CCCNC(=N)N)C(=O)N[C@@H](CCCNC(=N)N)C(=O)N[C@@H](CCCNC(=N)N)C(=O)N[C@@H](CCCNC(=N)N)C(=O)N[C@@H](Cc1ccc(O)cc1)C(=O)N2` (HELM PEPTIDE1{T.C.R.S.S.G.A.Y.C.R.S.P.Y.D.R.R.R.R.Y.C.R.R.I.T.D.A.C.V}$PEPTIDE1,PEPTIDE1,2:R3-27:R3|PEPTIDE1,PEPTIDE1,9:R3-20:R3$$$V2.0), the IC50 in experiment [1] was 48 nM; in experiment [2] it was more than 10000 nM.
